Measured values reported in the supplement of paper PMC13380429.

Columns and labels:
Settings in all cases: 72 h
Caco-2 [1] = experiment: cell viability relative to DMSO; higher = less toxic
Vero E6 [2] = experiment: as above
Calu-3 [3] = experiment: as above
U2OS [4] = experiment: as above
HepG2 [5] = experiment: as above
Caco-2 [6] = experiment: drug sensitivity score (DSS) for viability; higher = more toxic; extreme values may be limits of the assay
Vero E6 [7] = experiment: as above
Calu-3 [8] = experiment: as above
U2OS [9] = experiment: as above
HepG2 [10] = experiment: as above
Caco-2 [11] = experiment: relative viability EC50 (midpoint between 100% and the lowest measured viability); higher = less toxic
Vero E6 [12] = experiment: as above
Calu-3 [13] = experiment: as above
U2OS [14] = experiment: as above
HepG2 [15] = experiment: as above

| Compound | cell viability (Caco-2 [1]; 1 nM) [%] | cell viability (Caco-2 [1]; 10 nM) [%] | cell viability (Caco-2 [1]; 100 nM) [%] | cell viability (Caco-2 [1]; 1000 nM) [%] | cell viability (Caco-2 [1]; 10000 nM) [%] | cell viability (Vero E6 [2]; 1 nM) [%] | cell viability (Vero E6 [2]; 10 nM) [%] | cell viability (Vero E6 [2]; 100 nM) [%] | cell viability (Vero E6 [2]; 1000 nM) [%] | cell viability (Vero E6 [2]; 10000 nM) [%] | cell viability (Calu-3 [3]; 1 nM) [%] | cell viability (Calu-3 [3]; 10 nM) [%] | cell viability (Calu-3 [3]; 100 nM) [%] | cell viability (Calu-3 [3]; 1000 nM) [%] | cell viability (Calu-3 [3]; 10000 nM) [%] | cell viability (U2OS [4]; 1 nM) [%] | cell viability (U2OS [4]; 10 nM) [%] | cell viability (U2OS [4]; 100 nM) [%] | cell viability (U2OS [4]; 1000 nM) [%] | cell viability (U2OS [4]; 10000 nM) [%] | cell viability (HepG2 [5]; 1 nM) [%] | cell viability (HepG2 [5]; 10 nM) [%] | cell viability (HepG2 [5]; 100 nM) [%] | cell viability (HepG2 [5]; 1000 nM) [%] | cell viability (HepG2 [5]; 10000 nM) [%] | drug sensitivity score (Caco-2 [6]) | drug sensitivity score (Vero E6 [7]) | drug sensitivity score (Calu-3 [8]) | drug sensitivity score (U2OS [9]) | drug sensitivity score (HepG2 [10]) | relative viability EC50 (Caco-2 [11]) [µM] | relative viability EC50 (Vero E6 [12]) [µM] | relative viability EC50 (Calu-3 [13]) [µM] | relative viability EC50 (U2OS [14]) [µM] | relative viability EC50 (HepG2 [15]) [µM] |
| --- | --- | --- | --- | --- | --- | --- | --- | --- | --- | --- | --- | --- | --- | --- | --- | --- | --- | --- | --- | --- | --- | --- | --- | --- | --- | --- | --- | --- | --- | --- | --- | --- | --- | --- | --- |
| COC(=O)CC[C@@H]1N=C(c2ccccn2)c2cc(Br)ccc2-n2c(C)cnc21 [remimazolam] | 95.2 | 101 | 95.3 | 99.2 | 91.7 | 103 | 96.5 | 99.3 | 96 | 99.8 | 104 | 94.1 | 111 | 90 | 95.2 | 96.4 | 105 | 97.7 | 98 | 97.8 | 97.1 | 83.5 | 103 | 100 | 108 | 0 | 0 | 0 | 0 | 0 | > 10 | > 10 | > 10 | > 10 | > 10 |
| NC(=O)c1ncn([C@@H]2O[C@H](CO)[C@@H](O)[C@H]2O)n1 [ribavirin] | 109 | 97.6 | 108 | 113 | 82.9 | 101 | 101 | 98.5 | 104 | 104 | 104 | 108 | 111 | 88.6 | 92.9 | 92 | 93.8 | 99.5 | 95.9 | 113 | 95.7 | 104 | 99.8 | 121 | 86.7 | 0.2 | 0 | 0.3 | 0 | 0 | > 10 | > 10 | > 10 | > 10 | > 10 |
| Cc1ccc(NC2=CC(=O)c3sc(C)nc3C2=O)cc1 [ryuvidine] | 94.2 | 91.8 | 92.7 | 77.9 | 0.9 | 100 | 97.7 | 97.4 | 96.4 | 16.2 | 115 | 95.8 | 109 | 102 | 2.7 | 102 | 97.3 | 104 | 99.3 | 0 | 95.4 | 106 | 97.9 | 98.1 | 8.5 | 9 | 5.2 | 5.2 | 5.7 | 5.3 | 1.64 | 2.84 | 3.29 | 3.12 | 3.02 |
| C=C1/C(=C\C=C2/CCC[C@]3(C)[C@@H]([C@H](C)/C=C/C=C/C(O)(CC)CC)CC[C@@H]23)C[C@@H](O)C[C@@H]1O [seocalcitol] | 98.5 | 87.2 | 97.4 | 98.5 | 97.4 | 96 | 93.5 | 88.7 | 96.6 | 96.7 | 107 | 102 | 99.2 | 95.7 | 94.9 | 99.9 | 95.5 | 105 | 96.5 | 89.6 | 104 | 97.3 | 99.3 | 112 | 99.4 | 0 | 0 | 0 | 0 | 0 | > 10 | > 10 | > 10 | > 10 | > 10 |
| CCCC(=O)O [sodium-butyrate] | 104 | 95.8 | 100 | 99.9 | 98.9 | 109 | 101 | 102 | 99.4 | 100 | 103 | 95.8 | 96.2 | 97.7 | 102 | 104 | 102 | 98.6 | 106 | 96.5 | 109 | 91.8 | 102 | 91.2 | 99.1 | 0 | 0 | 0 | 0 | 0 | > 10 | > 10 | > 10 | > 10 | > 10 |
| COc1ccc(NS(=O)(=O)c2ccc(N)cc2)nn1 [sulfamethoxypyridazine] | 97.9 | 99.8 | 94.8 | 101 | 98.2 | 103 | 100 | 97.1 | 98.6 | 104 | 93.3 | 93.5 | 100 | 97.4 | 95.6 | 99.9 | 94.3 | 97.4 | 101 | 99.7 | 99.7 | 114 | 110 | 97.2 | 98.8 | 0 | 0 | 0 | 0 | 0 | > 10 | > 10 | > 10 | > 10 | > 10 |
| Nc1ccc(S(N)(=O)=O)cc1 [sulfanilamide] | 85.8 | 59.8 | 84.2 | 81.1 | 113 | 99.8 | 94.2 | 83.1 | 105 | 117 | 95 | 97.2 | 106 | 90.7 | 102 | 98.8 | 97 | 106 | 100 | 103 | 96.8 | 104 | 95.1 | 109 | 103 | 0 | 0 | 0 | 0 | 0 | > 10 | > 10 | > 10 | > 10 | > 10 |
